From PubChem BioAssay AID1963852 (Molecular Pharmacology Branch, DTP, NCI, 2024)

Tested on: 282377-053-R-J1-PDC complex spheroid viability
Experiment: Anticancer human tumor 282377-053-R-J1-PDC patient-derived colon adenocarcinoma cell line growth inhibition [POLQ]
Conditions: for IC50: curve of first compound; for viability, T/C: stronger effect = lower value
In short: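 Three-cell-type spheroids modelling solid tumor plus stroma served as the readout system; POL inhibitors were tested individually and in combination, concentration ranges set by clinical Cmax where known.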
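Note: spheroids exposed to compounds for seven days.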
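Throughout, for viability, T/C: 100% = DMSO vehicle control viability.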

CC(=O)O[C@H]1C(=O)[C@@]2(C)[C@H]([C@H](OC(=O)c3ccccc3)[C@]3(O)C[C@H](OC(=O)[C@H](O)[C@@H](NC(=O)c4ccccc4)c4ccccc4)C(C)=C1C3(C)C)[C@]1(OC(C)=O)CO[C@@H]1C[C@@H]2O + Nc1ccc(C#CCN(C(=O)Cc2ncc(C(F)(F)F)cc2C(F)(F)F)c2ccc(F)cc2)nn1
IC50 (second compound 0.0316 µM): > 3 µM | IC50 (second compound 0.1 µM): > 3 µM | IC50 (second compound 0.316 µM): 3 µM | IC50 (second compound 1 µM): > 3 µM | IC50 (second compound 3.16 µM): 0.0918 µM | IC50 (second compound 10 µM): > 3 µM | viability, T/C (second compound 0.0316 µM, first compound 0.00949 µM): 102% | viability, T/C (second compound 0.0316 µM, first compound 0.03 µM): 50.7% | viability, T/C (second compound 0.0316 µM, first compound 0.0949 µM): 47.4% | viability, T/C (second compound 0.0316 µM, first compound 0.3 µM): 46.9% | viability, T/C (second compound 0.0316 µM, first compound 0.949 µM): 51.2% | viability, T/C (second compound 0.0316 µM, first compound 3 µM): 65.8% | viability, T/C (second compound 0.1 µM, first compound 0.00949 µM): 102% | viability, T/C (second compound 0.1 µM, first compound 0.03 µM): 65.9% | viability, T/C (second compound 0.1 µM, first compound 0.0949 µM): 50.4% | viability, T/C (second compound 0.1 µM, first compound 0.3 µM): 46.5% | viability, T/C (second compound 0.1 µM, first compound 0.949 µM): 53.8% | viability, T/C (second compound 0.1 µM, first compound 3 µM): 64.9% | viability, T/C (second compound 0.316 µM, first compound 0.00949 µM): 100% | viability, T/C (second compound 0.316 µM, first compound 0.03 µM): 47.7% | viability, T/C (second compound 0.316 µM, first compound 0.0949 µM): 49.7% | viability, T/C (second compound 0.316 µM, first compound 0.3 µM): 50.1% | viability, T/C (second compound 0.316 µM, first compound 0.949 µM): 47.2% | viability, T/C (second compound 0.316 µM, first compound 3 µM): 65.2% | viability, T/C (second compound 1 µM, first compound 0.00949 µM): 99.1% | viability, T/C (second compound 1 µM, first compound 0.03 µM): 57.4% | viability, T/C (second compound 1 µM, first compound 0.0949 µM): 44.2% | viability, T/C (second compound 1 µM, first compound 0.3 µM): 53.3% | viability, T/C (second compound 1 µM, first compound 0.949 µM): 57.3% | viability, T/C (second compound 1 µM, first compound 3 µM): 57.7% | viability, T/C (second compound 3.16 µM, first compound 0.00949 µM): 87.8% | viability, T/C (second compound 3.16 µM, first compound 0.03 µM): 52.8% | viability, T/C (second compound 3.16 µM, first compound 0.0949 µM): 42.3% | viability, T/C (second compound 3.16 µM, first compound 0.3 µM): 49.7% | viability, T/C (second compound 3.16 µM, first compound 0.949 µM): 45.8% | viability, T/C (second compound 3.16 µM, first compound 3 µM): 60.8% | viability, T/C (second compound 10 µM, first compound 0.00949 µM): 106% | viability, T/C (second compound 10 µM, first compound 0.03 µM): 58.8% | viability, T/C (second compound 10 µM, first compound 0.0949 µM): 49.7% | viability, T/C (second compound 10 µM, first compound 0.3 µM): 50.9% | viability, T/C (second compound 10 µM, first compound 0.949 µM): 60.9% | viability, T/C (second compound 10 µM, first compound 3 µM): 77.6%
